Experimental data published in patent publication US11596939B2, “Lamp component distribution in a microfluid cell” (priority 2017, dated 2023).

What was measured:
[1] = test system: LAMP reaction; assay: ProClin950 in BlisterBuffer, effect on LAMP reaction; assay type: biochemical; conditions: added to BlisterBuffer
Description: Additionally, we added ProClin950 a biozide to the BlisterBuffer in order to inhibit microbial growth.

[2] = test system: target DNA; assay: Sample pre-treatment with antimicrobial peptides before isothermal amplification; conditions: sample pre-treatment with peptide
[3] = test system: LAMP reaction; assay: Effect of antimicrobial peptides on the amplification (LAMP) reaction; assay type: biochemical
Description: The use of peptides with higher concentrations may inhibit the amplification reaction in certain extent in comparison of ideal conditions, e.g. pure water (MQ). This is a drawback of use of peptides. However, not all the peptides have an equal effect.
This effect is explained by secondary property of peptides, which is an anti-inhibitory effect. Meaning, that in additionally to lysis effect, peptides also neutralizing inhibitory substances in real samples.

Compound | increase in isothermal amplification efficiency [2] | further results
Cn1sccc1=O [ProClin950, 2-Methyl-4-isothiazolin-3-one] |  | inhibition of the LAMP reaction [1]: did not inhibit
CC[C@H](C)[C@H](NC(=O)CN)C(=O)NCC(=O)N[C@@H](C)C(=O)N[C@H](C(=O)N[C@@H](CC(C)C)C(=O)N[C@@H](CCCCN)C(=O)N[C@H](C(=O)N[C@@H](CC(C)C)C(=O)N[C@H](C(=O)N[C@H](C(=O)NCC(=O)N[C@@H](CC(C)C)C(=O)N1CCC[C@H]1C(=O)N[C@@H](C)C(=O)N[C@@H](CC(C)C)C(=O)N[C@H](C(=O)N[C@@H](CO)C(=O)N[C@@H](Cc1c[nH]c2ccccc12)C(=O)N[C@H](C(=O)N[C@@H](CCCCN)C(=O)N[C@@H](CCCNC(=N)N)C(=O)N[C@@H](CCCCN)C(=O)N[C@@H](CCCNC(=N)N)C(=O)N[C@@H](CCC(N)=O)C(=O)N[C@@H](CCC(N)=O)C(N)=O)[C@@H](C)CC)[C@@H](C)CC)[C@@H](C)O)[C@@H](C)O)C(C)C)C(C)C [melittin, Melittin] | did not give significant increase | 
Cecropin P1 (SWLSKTAKKLENSAKKRISEGIAIAIQGGPR; Cecropin P1; listed as Ascaris suum) |  | increase of the target DNA available for the isothermal amplification ([2]; on average): 6 times; inhibitory effect on the amplification reaction ([3]; among current selection of peptides, compared with pure water (MQ)): lowest inhibitory effect; effect on amplification in urinary sample ([3]; in comparison of pure urinary sample): enhancing effect
MSI-78 | did not give significant increase | 
MSI-594 | did not give significant increase | 
bombolitin III | did not give significant increase | 
